According to US20160220523A1 (GEORGETOWN UNIVERSITY, priority 2013, published 2016):

Columns and labels:
Assay type in all cases: cell-based, murine
[1] = tested on: PGC-1α; assay: PGC-1α expression in LPS-treated BV2 cells (RT-PCR); conditions: GW6471 0.25-2 μM 0.5 hrs, 20 μM fenofibrate 18 hrs, 100 ng/mL LPS 4 hrs
Protocol: (§1) PGC-1α expression was determined by RT-PCR.
(§2) Then the cells were treated with 100 ng/mL LPS for 4 hrs. […] (**p<0.01 vs. control; ##p<0.001 vs. LPS).
(§3) MN9D cells were cultured in Dulbecco's Modified Eagle Medium (DMEM) supplemented with 10% fetal bovine serum, and 3.7 g/L sodium bicarbonate at 37° C., 5% carbon dioxide. BV-2 cells (murine microglia) were maintained in DMEM supplemented with 10% fetal bovine serum and antibiotics (penicillin, 100 U/mL, streptomycin […]). Antibiotics were omitted for the fenofibrate evaluation study.

[2] = tested on: IL-1β; assay: LPS-induced IL-1β expression in BV2 cells (RT-PCR)
Protocol: as §1, §2
(§4) Cell lysate was collected for Western blotting analysis.
as §3
(§5) AMPK is an energy sensor and can phosphorylate PGC-1α. It is plausible that AMPK phosphorylates PGC-1α and that PGC-1α then acts through positive feedback, binding to myocyte enhancer factor (MEF)-binding site to increase its own gene expression.

[3] = tested on: AMPK; assay: AMPK phosphorylation in BV2 cells (Western blot); conditions: compound C 0.5 hour, then fenofibrate 1 hour
Protocol: as §4
BV-2 cells (murine microglia) were maintained in Dulbecco's Modified Eagle Medium supplemented with 10% fetal bovine serum and antibiotics (penicillin, 100 U/mL, streptomycin 100 μg/mL). Antibiotics were omitted for the fenofibrate evaluation study.
as §5

**Q.** How did the “effect on fenofibrate mediated PGC-1α upregulation” value [1] turn out when `CCC(=O)NC[C@H](Cc1ccc(OCCc2nc(-c3ccccc3)oc2C)cc1)N/C(C)=C\C(=O)c1ccc(C(F)(F)F)cc1` [GW6471] was run?
**A.** fails to suppress

**Q.** What about the “effect on fenofibrate mediated anti-inflammatory effects (IL-1β mRNA)” value ([2]; GW6471 0.25-2 μM 0.5 hrs, 20 μM fenofibrate 18 hrs, 100 ng/mL LPS 4 hrs) of the same compound?
**A.** fails to suppress

**Q.** With `c1cc(-c2cnn3cc(-c4ccc(OCCN5CCCCC5)cc4)cnc23)ccn1` [compound C] as the compound, how does the “effect on fenofibrate mediated anti-inflammation (IL-1β gene expression)” value ([2]; Compound C 0.5 hour, then fenofibrate overnight, LPS) read?
**A.** weakened the anti-inflammatory effects of fenofibrate

**Q.** And the “AMPK phosphorylation under fenofibrate” value [3]?
**A.** concentration-dependent inhibitory effect
